Experimental data taken from paper PMC8445441, “Elucidating the mechanism by which synthetic helper peptides sensitize Pseudomonas aeruginosa to multiple antibiotics” (PLoS Pathogens, 2021).
Like-named read-outs stand apart in the source and are kept apart here.

Legend:
P. aeruginosa AUMC-Pa-3 = assay: microbe, parasite or virus in culture; settings: for MIC: Pseudomonas aeruginosa, AUMCPA3, 18 h, read-out: MICa: MIC of the antibiotic; for FICI / MICac: MIC of the antibiotic in the combination: strain AUMC-Pa-3; for FICI: antibiotic + D-11 (MICb/MICbc 128/4); for MICac: MIC of the antibiotic in the combination: with D-11 at MICbc 4, unit not given
How it was run: (§1)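 Values are lowest concentrations showing no visible growth after 18 h at 37 °C. Drugs were serially halved in MHB and combined with equal volumes of a roughly 1 × 10^6 CFU/mL suspension, following CLSI guidance, in triplicate.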

P. aeruginosa AUMC-Pa-4 = assay: microbe, parasite or virus in culture; settings: for FICI: antibiotic + D-11 (MICb/MICbc 128/4); for MICac: MIC of the antibiotic in the combination: with D-11 at MICbc 4
How it was run: as §1

P. aeruginosa AUMC-Pa-5 = assay: microbe, parasite or virus in culture; settings: for FICI: antibiotic + D-11 (MICb/MICbc 64/4); for MICac: MIC of the antibiotic in the combination: with D-11 at MICbc 4
How it was run: as §1

P. aeruginosa AUMC-Pa-6 = assay: microbe, parasite or virus in culture; settings: for FICI: antibiotic + D-11 (MICb/MICbc 64/4); for MICac: MIC of the antibiotic in the combination: with D-11 at MICbc 4
How it was run: as §1

P. aeruginosa PAO1 = assay: microbe, parasite or virus in culture; settings: PAO1; for MIC: Pseudomonas aeruginosa, PAO1, 18 h, read-out: MICa: the MIC of antibiotics, S3 Table, antibiotic alone; for FICI / MICac: the MIC for the antibiotic in the combination: S3 Table
How it was run: as §1

P. aeruginosa ATCC27853 = assay: microbe, parasite or virus in culture; parameters: MICa: MIC of the antibiotic / MICac: MIC of the antibiotic in the combination: unit not given beside the values; settings: for MIC: Pseudomonas aeruginosa, ATCC27853, 18 h, read-out: MICa: MIC of the antibiotic; for FICI / MICac: MIC of the antibiotic in the combination: strain ATCC27853; for FICI: antibiotic + D-11 (MICb/MICbc 32/4); for MICac: MIC of the antibiotic in the combination: with D-11 at MICbc 4, unit not given
How it was run: as §1

P. aeruginosa NR-31040 = assay: microbe, parasite or virus in culture; parameters: MICa: MIC of the antibiotic / MICac: MIC of the antibiotic in the combination: unit not given beside the values; settings: for FICI: antibiotic + D-11 (MICb/MICbc 128/4); for MICac: MIC of the antibiotic in the combination: with D-11 at MICbc 4
How it was run: as §1

P. aeruginosa NR-31041 = assay: microbe, parasite or virus in culture; parameters: MICa: MIC of the antibiotic / MICac: MIC of the antibiotic in the combination: unit not given beside the values; settings: for MIC: Pseudomonas aeruginosa, NR31041, 18 h, read-out: MICa: MIC of the antibiotic; for FICI / MICac: MIC of the antibiotic in the combination: strain NR-31041; for FICI: antibiotic + D-11 (MICb/MICbc 64/4); for MICac: MIC of the antibiotic in the combination: with D-11 at MICbc 4, unit not given
How it was run: as §1

P. aeruginosa PA14 = assay: microbe, parasite or virus in culture; parameters: MICa: MIC of the antibiotic / MICac: MIC of the antibiotic in the combination: unit not given beside the values; settings: for MIC: Pseudomonas aeruginosa, PA14, 18 h, read-out: MICa: MIC of the antibiotic; for FICI / MICac: MIC of the antibiotic in the combination: strain PA14; for FICI: antibiotic + D-11 (MICb/MICbc 128/4); for MICac: MIC of the antibiotic in the combination: with D-11 at MICbc 4, unit not given
How it was run: as §1

P. aeruginosa PAK = assay: microbe, parasite or virus in culture; parameters: MICa: MIC of the antibiotic / MICac: MIC of the antibiotic in the combination: unit not given beside the values; settings: for MIC: Pseudomonas aeruginosa, 18 h, read-out: MICa: MIC of the antibiotic; for FICI / MICac: MIC of the antibiotic in the combination: strain PAK; for FICI: antibiotic + D-11 (MICb/MICbc 64/4); for MICac: MIC of the antibiotic in the combination: with D-11 at MICbc 4, unit not given
How it was run: as §1

P. aeruginosa HM-214 = settings: strain HM-214; antibiotic + D-11 (MICb/MICbc 128/4)
How it was run: as §1

P. aeruginosa AUMC-Pa-1 = settings: strain AUMC-Pa-1; antibiotic + D-11 (MICb/MICbc 128/4)
How it was run: as §1

P. aeruginosa AUMC-Pa-2 = settings: strain AUMC-Pa-2; antibiotic + D-11 (MICb/MICbc 64/4)
How it was run: as §1

[1] = test system: clinical P. aeruginosa isolates; assay: microbe, parasite or virus in culture; settings: Pseudomonas aeruginosa, 18 h, antibiotic alone
How it was run: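 MIC is the lowest drug concentration showing no visible growth after 18 h at 37 °C. Two-fold dilutions in MHB were combined with an equal volume of bacterial suspension (about 1 × 10^6 CFU/mL), following CLSI broth microdilution, in triplicate.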

[2] = strain AUMC-Pa-4, unit not given
[3] = strain AUMC-Pa-5, unit not given
[4] = strain AUMC-Pa-6, unit not given
[5] = strain NR-31040, unit not given
[6] = read-out: Antibiotic sensibility (MIC) of clinical P. aeruginosa isolate AUMC-Pa-1, strain AUMC-Pa-1
[7] = read-out: Antibiotic sensibility (MIC) of clinical P. aeruginosa isolate AUMC-Pa-2, strain AUMC-Pa-2
[8] = read-out: Antibiotic sensibility (MIC) of clinical P. aeruginosa isolate AUMC-Pa-3, strain AUMC-Pa-3
[9] = read-out: Antibiotic sensibility (MIC) of clinical P. aeruginosa isolate AUMC-Pa-4, strain AUMC-Pa-4
[10] = read-out: Antibiotic sensibility (MIC) of clinical P. aeruginosa isolate AUMC-Pa-5, strain AUMC-Pa-5
[11] = read-out: Antibiotic sensibility (MIC) of clinical P. aeruginosa isolate AUMC-Pa-6, strain AUMC-Pa-6
[12] = read-out: Antibiotic sensibility (MIC) of clinical P. aeruginosa isolate HM-214, strain HM-214
[13] = read-out: Antibiotic sensibility (MIC) of clinical P. aeruginosa isolate NR-31040, strain NR-31040
[14] = read-out: Antibiotic sensibility (MIC) of clinical P. aeruginosa isolate NR-31041, strain NR-31041

CO[C@H]1/C=C/O[C@@]2(C)Oc3c(C)c(O)c4c(O)c(c5c(nc6cc(C)ccn65)c4c3C2=O)NC(=O)/C(C)=C\C=C\[C@H](C)[C@H](O)[C@@H](C)[C@@H](O)[C@@H](C)[C@H](OC(C)=O)[C@@H]1C [Rifaximin]
MIC (P. aeruginosa AUMC-Pa-3): 8 µM
FICI (P. aeruginosa AUMC-Pa-3): 0.063
MICac: MIC of the antibiotic in the combination (P. aeruginosa AUMC-Pa-3): 0.25
FICI (P. aeruginosa AUMC-Pa-4; strain AUMC-Pa-4): 0.281
MICa: MIC of the antibiotic (P. aeruginosa AUMC-Pa-4; strain AUMC-Pa-4, antibiotic alone, unit not given): 8
MICac: MIC of the antibiotic in the combination (P. aeruginosa AUMC-Pa-4; [2]): 2
FICI (P. aeruginosa AUMC-Pa-5; strain AUMC-Pa-5): 0.313
MICa: MIC of the antibiotic (P. aeruginosa AUMC-Pa-5; strain AUMC-Pa-5, antibiotic alone, unit not given): 32
MICac: MIC of the antibiotic in the combination (P. aeruginosa AUMC-Pa-5; [3]): 8
FICI (P. aeruginosa AUMC-Pa-6; strain AUMC-Pa-6): 0.313
MICa: MIC of the antibiotic (P. aeruginosa AUMC-Pa-6; strain AUMC-Pa-6, antibiotic alone, unit not given): 16
MICac: MIC of the antibiotic in the combination (P. aeruginosa AUMC-Pa-6; [4]): 4
MIC (P. aeruginosa PAO1): 16 µM
FICI (P. aeruginosa PAO1; antibiotic + 2 μM D-11): 0.066
FICI (P. aeruginosa PAO1; antibiotic + 4 μM D-11): 0.127
MICac: the MIC for the antibiotic in the combination (P. aeruginosa PAO1; with 2 μM D-11): 0.0625 µM
MICac: the MIC for the antibiotic in the combination (P. aeruginosa PAO1; with 4 μM D-11): 0.03125 µM
MIC (P. aeruginosa ATCC27853): 16 µM
FICI (P. aeruginosa ATCC27853): 0.156
MICac: MIC of the antibiotic in the combination (P. aeruginosa ATCC27853): 0.5
FICI (P. aeruginosa NR-31040; strain NR-31040): 0.094
MICa: MIC of the antibiotic (P. aeruginosa NR-31040; strain NR-31040, antibiotic alone, unit not given): 16
MICac: MIC of the antibiotic in the combination (P. aeruginosa NR-31040; [5]): 1
MIC (P. aeruginosa NR-31041): 16 µM
FICI (P. aeruginosa NR-31041): 0.078
MICac: MIC of the antibiotic in the combination (P. aeruginosa NR-31041): 0.25
MIC (P. aeruginosa PA14): > 128 µM
FICI (P. aeruginosa PA14): 0.094
MICac: MIC of the antibiotic in the combination (P. aeruginosa PA14): 16
MIC (P. aeruginosa PAK): 16 µM
FICI (P. aeruginosa PAK): 0.094
MICac: MIC of the antibiotic in the combination (P. aeruginosa PAK): 0.5
FICI (P. aeruginosa HM-214): 0.063
FICI (P. aeruginosa AUMC-Pa-1): 0.047
FICI (P. aeruginosa AUMC-Pa-2): 0.094
MIC [1, 6]: 32 µM
MIC [1, 7]: 8 µM
MIC [1, 8]: 8 µM
MIC [1, 9]: 8 µM
MIC [1, 10]: 32 µM
MIC [1, 11]: 16 µM
MIC [1, 12]: 8 µM
MIC [1, 13]: 16 µM
MIC [1, 14]: 16 µM

COc1cc(Cc2cnc(N)nc2N)cc(OC)c1OC [Trimethoprim]
MIC (P. aeruginosa AUMC-Pa-3): > 128 µM
FICI (P. aeruginosa AUMC-Pa-3): 0.094
MICac: MIC of the antibiotic in the combination (P. aeruginosa AUMC-Pa-3): 16
MIC (P. aeruginosa AUMC-Pa-4; Pseudomonas aeruginosa, AUMCPA4, 18 h, read-out: MICa: MIC of the antibiotic): > 128 µM
FICI (P. aeruginosa AUMC-Pa-4; strain AUMC-Pa-4): 0.156
MICac: MIC of the antibiotic in the combination (P. aeruginosa AUMC-Pa-4; [2]): 16
MIC (P. aeruginosa AUMC-Pa-5; Pseudomonas aeruginosa, AUMCPA5, 18 h, read-out: MICa: MIC of the antibiotic): > 128 µM
FICI (P. aeruginosa AUMC-Pa-5; strain AUMC-Pa-5): 0.563
MICac: MIC of the antibiotic in the combination (P. aeruginosa AUMC-Pa-5; [3]): >128/128
MIC (P. aeruginosa AUMC-Pa-6; Pseudomonas aeruginosa, AUMCPA6, 18 h, read-out: MICa: MIC of the antibiotic): > 128 µM
FICI (P. aeruginosa AUMC-Pa-6; strain AUMC-Pa-6): 0.313
MICac: MIC of the antibiotic in the combination (P. aeruginosa AUMC-Pa-6; [4]): 64
MIC (P. aeruginosa PAO1): > 128 µM
FICI (P. aeruginosa PAO1; antibiotic + 2 μM D-11): 0.188
FICI (P. aeruginosa PAO1; antibiotic + 4 μM D-11): 0.188
MICac: the MIC for the antibiotic in the combination (P. aeruginosa PAO1; with 2 μM D-11): 32 µM
MICac: the MIC for the antibiotic in the combination (P. aeruginosa PAO1; with 4 μM D-11): 16 µM
MIC (P. aeruginosa ATCC27853): > 128 µM
FICI (P. aeruginosa ATCC27853): 0.250
MICac: MIC of the antibiotic in the combination (P. aeruginosa ATCC27853): 32
MIC (P. aeruginosa NR-31040; Pseudomonas aeruginosa, NR31040, 18 h, read-out: MICa: MIC of the antibiotic): > 128 µM
FICI (P. aeruginosa NR-31040; strain NR-31040): 0.281
MICac: MIC of the antibiotic in the combination (P. aeruginosa NR-31040; [5]): 64
MIC (P. aeruginosa NR-31041): > 128 µM
FICI (P. aeruginosa NR-31041): 0.125
MICac: MIC of the antibiotic in the combination (P. aeruginosa NR-31041): 16
MIC (P. aeruginosa PA14): > 128 µM
FICI (P. aeruginosa PA14): 0.156
MICac: MIC of the antibiotic in the combination (P. aeruginosa PA14): 32
MIC (P. aeruginosa PAK): > 128 µM
FICI (P. aeruginosa PAK): 0.188
MICac: MIC of the antibiotic in the combination (P. aeruginosa PAK): 32
FICI (P. aeruginosa HM-214): 0.281
FICI (P. aeruginosa AUMC-Pa-1): 0.156
FICI (P. aeruginosa AUMC-Pa-2): 0.188
MIC [1, 6]: > 128 µM
MIC [1, 7]: > 128 µM
MIC [1, 8]: > 128 µM
MIC [1, 9]: > 128 µM
MIC [1, 10]: > 128 µM
MIC [1, 11]: > 128 µM
MIC [1, 12]: > 128 µM
MIC [1, 13]: > 128 µM
MIC [1, 14]: > 128 µM
